Laboratory results from patent US9370589B2, “Switching fluorescent nanoparticle probe and fluorescent particle imaging method using same” (SHIMADZU CORPORATION, priority 2010, dated 2016).

Experiments:
[1] = Fluorescence intensity before and after change in external environment (addition of plasma); settings: for Fluorescence maximum: lactosome (PSar-PLLA) containing 20 mol % of dye (IC7-2: 15 mol %), addition of plasma, polymer 1/15 mg/mL; for Fluorescence intensity (A) / Fluorescence intensity (PBS)(B) / Ratio of fluorescence intensity (A/B): lactosome containing 20 mol % of dye (IC7-2: 15 mol %); for Fluorescence intensity (A): after addition of plasma; for Fluorescence intensity (PBS)(B): in PBS, at the plasma fluorescence maximum wavelength; for Ratio of fluorescence intensity (A/B): plasma versus PBS
Experimental: Requirements for recovery of fluorescence intensity under in vivo conditions were studied. A water dispersion of the lactosome encapsulating 20 mol % of IC7-1 in a carrier agent PSar-PLLA (1 mg/mL) and phosphate buffered saline (PBS), plasma (collected from a male ddY), 5 wt % albumin (BSA), or 5 wt % SDS were mixed 1:1 (volume ratio), respectively, and the mixture was allowed to stand at room temperature for 30 minutes under lightproof conditions, and then diluted with PBS so that the concentration of the amphiphilic polymer was 1/15 mg/mL to measure a fluorescence spectrum (FIG. 3(a)).

albumin (BSA) = albumin (BSA) (Bos taurus, UniProt P02769); assay: Fluorescence intensity before and after change in external environment (addition of 5 wt % BSA); settings: lactosome containing 20 mol % of dye (IC7-2: 15 mol %); for Ratio of fluorescence intensity (A/B): 5 wt % BSA versus PBS; for Fluorescence maximum: addition of 5 wt % BSA, polymer 1/15 mg/mL; for Fluorescence intensity (A): after addition of 5 wt % BSA; for Fluorescence intensity (PBS)(B): in PBS, at the BSA fluorescence maximum wavelength
Text: (§1) Requirements for recovery of fluorescence intensity under in vivo conditions were studied.
(§2) It is to be noted that specific composition of the phosphate buffered saline (PBS) is as follows: 29 g of Na2HPO4.12H2O, 2.96 g of NaH2PO4.2H2O, and 8.7 g of NaCl per 1 liter of ultrapure water.

[2] = Fluorescence intensity before and after change in external environment (addition of 5 wt % SDS); settings: lactosome containing 20 mol % of dye (IC7-2: 15 mol %); for Ratio of fluorescence intensity (A/B): 5 wt % SDS versus PBS; for Fluorescence maximum: addition of 5 wt % SDS, polymer 1/15 mg/mL; for Fluorescence intensity (A): after addition of 5 wt % SDS; for Fluorescence intensity (PBS)(B): in PBS, at the SDS fluorescence maximum wavelength
Text: as §1, §2

[3] = Absorption and fluorescence spectra of fluorescent dye-encapsulating lactosomes in ultrapure water; assay type: physicochemical; settings: polymer 1 mg/mL; for absorption maximum / Fluorescence maximum: lactosome encapsulating 1 mol % of dye
Experimental: Among the lactosomes encapsulating the fluorescent dye IC7-1 (IC7-1/Lactosomes) obtained in Example 1-1, the freeze-dried products of the lactosomes each encapsulating 1 mol %, 5 mol %, 10 mol % and 20 mol % of the fluorescent dye were subjected to measurement of absorption spectra and fluorescence spectra in the following manner.
The measurement of absorption spectra was performed to confirm that each of these lactosomes encapsulated the fluorescent dye according to their respective fluorescent dye blend ratios. Further, the measurement of fluorescence intensity of the fluorescent dye-encapsulating lactosomes was performed. The measurement of absorption spectra was performed using an ultraviolet-visible spectrophotometer (UVmini-1240, manufactured by SHIMADZU CORPORATION). The measurement of fluorescence spectra was performed at an excitation wavelength of 785 nm in the range of 700 to 900 nm using a fluorescence spectrophotometer (RF-5300PC, manufactured by SHIMADZU CORPORATION).
Each of the fluorescent dye-encapsulating lactosomes was dispersed in ultrapure water so that the concentration of the amphiphilic polymer was 1 mg/mL to measure absorption and fluorescence spectra (FIG. 1). The lactosome encapsulating 1 mol % of IC7-1 had adsorption maximum at 831 nm and fluorescence maximum at 836 nm. Although the intensity of absorbance increased as the fluorescent dye content increased, the intensity of fluorescence was highest when the fluorescent dye content was 1 mol %, and was reduced to about 1/120 when the fluorescent dye content was 20 mol % as compared to when the fluorescent dye content was 1 mol % (FIGS. 1(a) and 1(b)). The lactosome encapsulating 1 mol % of IC7-2 had absorption maximum at 831 nm and fluorescence maximum at 833 nm. […] Also when IC7-2 was contained, quenching of fluorescence was observed. The intensity of fluorescence was reduced to about ⅛ when the IC7-2 content was 20 mol % as compared to when the IC7-2 content was 1 mol % (FIGS. 1(c) and 1(d)).
Among the lactosomes encapsulating the fluorescent dye IC7-1 (IC7-1/Lactosomes) obtained in Example 1-1, the lactosomes each encapsulating 0.5 mol % (for comparison), 1 mol %, 2 mol %, 4 mol %, 8 mol %. 12 mol %, 16 mol %, or 20 mol % of the fluorescent dye IC7-1 (IC7-1/Lactosomes) were dispersed in ultrapure water so that the concentration of the amphiphilic polymer was 1 mg/mL to measure the maximum value of fluorescence at an excitation wavelength of 785 nm (FIG. 2(a)).

[4] = Dependence of fluorescence intensity of fluorescent dye-encapsulating lactosome on fluorescent dye content; assay type: physicochemical; settings: for intensity of fluorescence by adding SDS, BSA, or plasma: lactosome with varied dye content; for fluorescent dye content at which the intensity of fluorescence in PBS was maximized: polymer 1/15 mg/mL
Experimental: Lactosomes encapsulating, as a fluorescent dye, IC7-1, IC7-2, IR820, IR783, or IR806 were prepared by changing the fluorescent dye content (1 mg/mL), and were then mixed with PBS, 5 wt % SDS, 5 wt % BSA, or plasma 1:1 (volume ratio), and the mixture was allowed to stand at room temperature for 30 minutes under lightproof conditions, and then diluted with PBS so that the concentration of the amphiphilic polymer was 1/15 mg/mL to measure the intensity of fluorescence using Fluorolog-3 (HORIBA Jobin Yvon Inc.) (FIG. 6).

Sequence of albumin (BSA) (P02769 25-607): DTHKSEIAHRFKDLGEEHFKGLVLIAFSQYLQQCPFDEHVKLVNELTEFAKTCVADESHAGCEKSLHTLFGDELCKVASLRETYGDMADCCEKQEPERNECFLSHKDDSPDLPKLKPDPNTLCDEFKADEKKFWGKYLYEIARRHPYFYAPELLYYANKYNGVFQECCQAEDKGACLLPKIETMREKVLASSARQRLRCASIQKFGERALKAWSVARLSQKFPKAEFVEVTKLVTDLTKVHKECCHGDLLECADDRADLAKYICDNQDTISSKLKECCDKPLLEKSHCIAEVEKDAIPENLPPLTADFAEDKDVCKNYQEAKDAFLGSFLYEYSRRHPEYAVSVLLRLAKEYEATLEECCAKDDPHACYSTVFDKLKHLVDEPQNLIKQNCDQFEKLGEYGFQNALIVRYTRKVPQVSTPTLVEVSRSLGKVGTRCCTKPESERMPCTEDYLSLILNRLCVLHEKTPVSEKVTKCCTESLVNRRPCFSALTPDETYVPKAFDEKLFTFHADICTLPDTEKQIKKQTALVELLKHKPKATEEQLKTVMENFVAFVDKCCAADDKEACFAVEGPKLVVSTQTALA

SMILES | Fluorescence maximum [1] [nm] | Fluorescence intensity (A) [1] | Fluorescence intensity (PBS)(B) [1] | Ratio of fluorescence intensity (A/B) [1] | Ratio of fluorescence intensity (A/B) (albumin (BSA)) | Fluorescence maximum (albumin (BSA)) [nm] | Fluorescence intensity (A) (albumin (BSA)) | Fluorescence intensity (PBS)(B) (albumin (BSA)) | Ratio of fluorescence intensity (A/B) [2] | Fluorescence maximum [2] [nm] | Fluorescence intensity (A) [2] | Fluorescence intensity (PBS)(B) [2] | absorption maximum [3] [nm] | Fluorescence maximum ([3]; excitation 785 nm) [nm] | intensity of fluorescence at 20 mol % dye content as compared to 1 mol % (reduced to) ([3]; lactosome) | intensity of fluorescence by adding SDS, BSA, or plasma [4] | fluorescent dye content at which the intensity of fluorescence in PBS was maximized ([4]; lactosome) [mol %] | fluorescent dye content at which the intensity of fluorescence was highest ([3]; lactosome, excitation 785 nm) [mol %] | increase of fluorescent dye content by which fluorescence intensity per 1 μM dye is reduced to ½ ([3]; lactosome, until content reached 8 mol %) [mol %] | increase of encapsulated fluorescent dye amount by which fluorescence intensity per certain amount of dye is reduced to ½ ([4]; lactosome, amphiphilic polymer concentration 1/15 mg/mL) [mol %]
CC1(C)C(/C=C/C=C/C=C/C=C2\N(CCCCS(=O)(=O)O)c3ccc4ccccc4c3C2(C)C)=[N+](CCCCS(=O)(=O)[O-])c2ccc3ccccc3c21 [ICG, indocyanine green] | 824 | 342590 | 5212 | 65.7 | 33.4 | 802 | 148650 | 4454 | 71.9 | 821 | 382900 | 5327 |  |  |  |  |  |  |  | 
CC1(C)C(/C=C/C2=C(Cl)C(=C/C=C3/C=CN(CCO)c4ccccc43)/CCC2)=[N+](CCCCCC(=O)O)c2ccc3ccccc3c21.[I-] [IC7-2] | 901 | 241880 | 14224 | 17.0 | 13.1 | 903 | 185345 | 14147 | 7.9 | 916 | 124942 | 15816 | 831 | 833 | about ⅛ | increased with dependence on fluorescent dye content | 2.5 |  |  | 
O=C(O)c1ccccc1C1=c2cc3c4c(c2Oc2c1cc1c5c2CCCN5CCC1)CCC[N+]=4CCC3 [Rhodamine 101] | 601 | 154280 | 163410 | 0.9 | 1.1 | 600 | 171710 | 163500 | 1.5 | 598 | 249130 | 162110 |  |  |  |  |  |  |  | 
N#CC1=c2cc3c4c(c2Oc2c1cc1c5c2CCCN5CCC1)CCC[N+]=4CCC3 [Rhodamine 800] | 699 | 138170 | 82260 | 1.7 | 1.7 | 699 | 139250 | 82260 | 1.9 | 702 | 152580 | 80647 |  |  |  |  |  |  |  | 
CC1(C)C(/C=C/C2=C(Cl)C(=C/C=C3\N(CCCCCC(=O)O)c4ccc5ccccc5c4C3(C)C)/CCC2)=[N+](CCO)c2ccc3ccccc3c21.[I-] [IC7-1] | 844 | 199746 | 696 | 287.0 | 156.3 | 837 | 92384 | 591 | 204.5 | 852 | 141929 | 694 | 831 | 836 | about 1/120 | increased with dependence on fluorescent dye content | 1 | 1 | 0.78 | 1.12
